According to US5521184A, “Pyrimidine derivatives and processes for the preparation thereof” (Ciba-Geigy Corporation, priority 1992, dated 1996):

Legend:
[1] = system: p34^cdc2 /cyclin B^cdc13 kinase; test: p34cdc2/cyclin Bcdc13 kinase assay with histone H1 as substrate; assay type: biochemical, starfish
Experimental: Starfish oocytes are induced to enter M phase with 10 μM 1-methyladenine, frozen in liquid nitrogen and stored at -80° C. When required the oocytes are homogenized and centrifuged as described by D. Arion et al., Cell 55, 371-378 (1988) and V. Rialet und L. Meijer, Anticancer Res. 11, 1581-1590 (1991). For purification of p34^cdc2 /cyclin B^cdc13 kinase, the supernatant of oocytes is added to p9^CKShs -sepharose beads prepared from recombinant human p9^CKShsas described by L. Azzi et al., Eur. J. Biochem. 203, 353-360 (1992). After 30 minutes at 4° C. under constant rotation, the beads are extensively washed and active p34^cdc2 /cyclin B^cdc13 kinase is eluted with free p9^CKShs (3 mg/ml). The eluted kinase is assayed using histone H1 as a substrate as described by L. Meijer et al., EMBO J. 8, 2275-2282 (1989) und EMBO J. 10, 1545-1554 (1991). The reaction mixture contains 10 μl p34^cdc2 /cyclin B^cdc13 kinase, 5 μl histone H1, type III-S (5 mg/ml) and 10 μl buffer C. The reaction is started by addition of 5 μl [γ-^32 P]ATP (75 μM, 8800 cpm/pmole) and incubated for 10 minutes at 30° C. The assay is terminated by transferring 25 μl on pieces of Whatman P81 phosphocellulose paper. After 20 seconds the papers are washed 6 times with each 10 ml of 1% phosphoric acid for 5 minutes, dried and counted in a scintillation counter.

[2] = system: human T24 bladder carcinoma; test: tumour-inhibiting activity in nude mice with transplanted human T24 bladder carcinoma; assay type: in vivo, female Balb/c nude mice; settings: perorally or intraperitoneally once daily for 15 days
Experimental: The tumour-inhibiting activity is determined using female Balb/c nude mice in which human T24 bladder carcinoma has been transplanted. On day 0, a c. 25 mg piece of solid tumour is transplanted subcutaneously under peroral "forene" narcosis on the left flank and the small incision wound is closed with a suture clip. On day 6 after the tumour transplantation, the mice are randomised in groups of 6 animals and treatment is commenced. The treatment is carded out for 15 days by administering a compound of formula I, e.g. N-[3-(1,1,2,2-Tetrafluoroethoxy)phenyl]-4-(4-pyridyl)-2-pyrimidine-amine, in dimethyl sulfoxide/Tween 80/sodium chloride solution in the different doses perorally or intraperitoneally once daily. The tumours are measured twice weekly with a sliding caliper and the tumour volume determined.

[3] = target: EGF-receptor-specific protein tyrosine kinase (EGF-R-PTK) (Homo sapiens, UniProt P00533); test: inhibition of the EGF-receptor-specific protein tyrosine kinase (EGF-R-PTK); assay type: biochemical
Chain of EGF-receptor-specific protein tyrosine kinase (EGF-R-PTK) (P00533 669-1210 limits assumed): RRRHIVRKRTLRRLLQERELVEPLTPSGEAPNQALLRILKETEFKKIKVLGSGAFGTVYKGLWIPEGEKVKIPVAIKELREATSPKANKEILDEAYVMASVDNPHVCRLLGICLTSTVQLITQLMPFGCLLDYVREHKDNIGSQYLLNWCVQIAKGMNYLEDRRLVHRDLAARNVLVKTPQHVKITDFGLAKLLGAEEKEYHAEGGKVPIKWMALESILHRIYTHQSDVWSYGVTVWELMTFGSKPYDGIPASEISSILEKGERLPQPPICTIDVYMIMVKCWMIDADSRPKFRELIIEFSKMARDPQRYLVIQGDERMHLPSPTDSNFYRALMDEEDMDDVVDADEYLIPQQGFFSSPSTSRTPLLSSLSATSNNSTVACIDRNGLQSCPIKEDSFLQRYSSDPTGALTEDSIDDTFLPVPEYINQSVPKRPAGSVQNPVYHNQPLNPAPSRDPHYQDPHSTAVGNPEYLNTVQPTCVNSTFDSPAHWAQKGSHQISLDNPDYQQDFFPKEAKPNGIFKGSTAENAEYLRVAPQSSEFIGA
From the text: J. Biochem. 207, 265-275 (1992).

Row | SMILES | inhibition of p34cdc2/cyclin Bcdc13 kinase [1] | IC50 ([1]; histone H1 substrate) | average tumour volume compared with the untreated controls [2] | inhibition of the tyrosine kinase activity of the receptor for EGF [3]
1 | FC(F)C(F)(F)Oc1cccc(Nc2nccc(-c3ccncc3)n2)c1 [Example 32, N-[3-(1,1,2,2-tetrafluoroethoxy)phenyl]-4-(4-pyridyl)-2-pyrimidine-amine] | inhibit | 80 nM | marked reduction in the average tumour volume | 
2 | FC(F)C(F)(F)Oc1cccc(Nc2nccc(-c3c[nH]c4ccccc34)n2)c1 [Example 33, N-[3-(1,1,2,2-tetrafluoroethoxy)phenyl]-4-(3-indolyl)-2-pyrimidine-amine] |  |  |  | inhibit the tyrosine kinase activity
